From patent US4665068A, “Novel 9-chloro-1,5-benzothiazepine derivatives and their pharmaceutical use” (Tanabe Seiyaku Co., Ltd., priority 1984, dated 1987)
Counter-ions that a name gives are not always drawn.

What was measured:
[1] = system: vertebral artery blood flow; assay: Cerebral vasodilating activity, blood flow in vertebral artery of anesthetized dogs; type: in vivo, dog (male); details: for increase in vertebral artery blood flow / cerebral vasodilating activity, times stronger than the 7-chloro derivative: intraarterial; for cerebral vasodilating activity, times stronger than the 7-chloro derivative: vs (±)-cis-3-acetoxy-7-chloro derivative hydrochloride; for Cerebral vasodilating activity (potency ratio): potency ratio to papaverine from dose-response curves, injected into vertebral artery
Experimental: (§1) On the other hand, when the coronary vasodilating activity is estimated by the Langendorff method using isolated hearts of guinea pigs, said activity of (+)-cis-2-(4-methoxyphenyl)-3-acetoxy-5-[2-(dimethylamino)ethyl]-9-chloro- 2,3-dihydro-1,5-benzothiazepin-4(5H)-one hydrochloride is about 10 times stronger than that of papaverine.
(Cerebral vasodilating activity)
Male dogs weighing 10 to 20 kg were anesthetized with sodium pentobarbital (30 mg/kg, intravenous injection). The blood flow in vertebral artery was measured continuously by means of an electromagnetic flowmeter under artificial respiration. A test compound dissolved in an aqueous 5% glucose solution was injected into vertebral artery. The cerebral vasodilating activity of the test compound was estimated in terms of the potency ratio of said compound to papaverine, which was calculated from the dose-response curves thereof.

[2] = system: coronary blood flow of the isolated heart of guinea pig; assay: Coronary vasodilating activity, Langendorff's method, isolated heart of guinea pig; details: for Coronary vasodilating activity: isolated guinea pig heart
From the text: as §1
(Coronary vasodilating activity)
Langendorff's method was used for testing the effect on the coronary blood flow of the isolated heart of guinea pig (about 280 g). The isolated heart was perfused with Locke-Ringer solution containing 2% of defibrinated rabbit blood, which had been saturated with a mixed gas of 95% O2 and 5% CO2 (30° C.). Perfusion pressure was kept at 40 cm H2 O. A solution of a test compound in an aqueous 5% glucose solution was injected into the perfusing solution at a volume of 0.1 ml per heart. The outflow of the perfusate was measured by means of a drop counter.
The coronary vasodilating activity of the test compound was expressed as "±" if the increase in coronary blood flow is less than 0.5 ml/minute at a dose of 100 μg/heart; "+" if the increase is not less than 0.5 ml/minute at a dose of 100 μg/heart; "++" if the increase is not less than 0.5 ml/minute at a dose of 30 μg/heart; and "+++" if the increase is not less than 0.5 ml/minute at a dose of not more than 10 μg/heart.

[3] = system: spontaneously hypertensive rats (SHR); assay: Hypotensive activity, systolic blood pressure of SHR after oral dosing (tail plethysmographic technique); type: in vivo, rat (spontaneously hypertensive; details: 30 mg/kg oral
Experimental: A test compound (dose: 30 mg/kg) dissolved or suspended in water was administered orally to spontaneously hypertensive rats (SHR) (one group: 3 rats) fasted overnight. […] The hypotensive activity of the test compound was estimated at one or 4 hours after dosing and expressed as "-" if the decrease in blood pressure is less than 10 mm Hg; "+" if the decrease is not less than 10 mm Hg but less than 20 mm Hg; "++" if the decrease is not less than 20 mm Hg but less than 40 mm Hg; "+++" if the decrease is not less than 40 mm Hg but less than 60 mm Hg; or "++++" if the decrease is not less than 60 mm Hg.

[4] = Acute toxicity, oral, mice; details: mouse, in vivo
Experimental: For example, the acute toxicity (LD50) of (+)-cis-2-(4-methoxypnenyl)-3-acetoxy-5-[2-(dimethylamino)ethyl]-9-chloro- 2,3-dihydro-1,5-benzothiazepin-4(5H)-one hydrochloride when orally administered to mice is about 1,000 mg/kg.

platelet aggregation = assay: Platelet aggregation-inhibiting activity (collagen, platelet-rich plasma, Born's method); type: cell-based, rat (male Sprague-Dawley); design: key to the marks not given beside the values; details: final concentration 100 μg/ml, rat PRP, 37° C.
From the text: (Platelet aggregation-inhibiting activity)
Blood was collected from the abdominal aorta of male Sprague-Dawley rats which were anesthetized with ether. Nine volumes of rat blood were mixed with one volume of an aqueous trisodium citrate solution, and the mixture was centrifuged to give platelet-rich plasma ("PRP") as the supernatant solution. The bottom layer was further centrifuged to give platelet-poor plasma ("PPP") as the supernatant solution. Platelet counts were adjusted to 0.8-1×10^6 /mm^3 for PRP by dilution with PPP. After a mixture of 200 μl of the diluted PRP and 25 μl of a test compound solution (final concentration: 100 μg/ml) was stirred for 2 minutes at 37° C., 25 μl of a collagen solution [Biochim. Biophys.

SMILES | Cerebral vasodilating activity (potency ratio) [1] | Coronary vasodilating activity [2] | Hypotensive activity, 1 hr after dosing [3] | Hypotensive activity, 4 hrs after dosing [3] | also measured
COc1ccc([C@@H]2Sc3c(Cl)cccc3N(CCN(C)C)C(=O)[C@@H]2O)cc1.[O-][Cl+3]([O-])([O-])O (single isomer, unassigned) [(+)-cis-2-(4-methoxyphenyl)-3-hydroxy-5-[2-(dimethylamino)ethyl]-9-chloro-2,3-dihydro-1,5-benzothiazepin-4(5H)-one perchlorate] | 22 | +++ (increase is not less than 0.5 ml/minute at a dose of not more than 10 μg/heart) | +++ (decrease is not less than 40 mm Hg but less than 60 mm Hg) | ++ (decrease is not less than 20 mm Hg but less than 40 mm Hg) | increase in vertebral artery blood flow [1]: remarkable increase in vertebral artery blood flow; cerebral vasodilating activity, times stronger than the 7-chloro derivative [1]: more than 3 times
COc1ccc([C@@H]2Sc3c(Cl)cccc3N(CCN(C)C)C(=O)[C@@H]2OC(C)=O)cc1.Cl (single isomer, unassigned) [(+)-cis-2-(4-methoxyphenyl)-3-acetoxy-5-[2-(dimethylamino)ethyl]-9-chloro-2,3-dihydro-1,5-benzothiazepin-4(5H)-one hydrochloride] | 15 | +++ (increase is not less than 0.5 ml/minute at a dose of not more than 10 μg/heart) | ++++ (decrease is not less than 60 mm Hg) | +++ (decrease is not less than 40 mm Hg but less than 60 mm Hg) | increase in vertebral artery blood flow [1]: remarkable increase in vertebral artery blood flow; cerebral vasodilating activity, times stronger than the 7-chloro derivative [1]: more than 3 times; LD50 [4]: ~1000 mg/kg; coronary vasodilating activity, times stronger than papaverine ([2]; isolated guinea pig hearts, vs papaverine): about 10 times; decrease in blood pressure, one hour after administration ([3]; 1 hour): about 74 mm Hg; decrease in blood pressure, 4 hours after administration ([3]; 4 hours): ~54 mm Hg
COc1ccc([C@@H]2Sc3ccc(Cl)cc3N(CCN(C)C)C(=O)[C@@H]2OC(C)=O)cc1.Cl (racemic) [(±)-cis-2-(4-methoxyphenyl)-3-acetoxy-5-[2-(dimethylamino)ethyl]-7-chloro-2,3-dihydro-1,5-benzothiazepin-4(5H)-one hydrochloride, reference compound] | 5 | – | – | – | –
COc1ccc(Cc2nccc3cc(OC)c(OC)cc23)cc1OC [Papaverine, reference compound] | – | + (increase is not less than 0.5 ml/minute at a dose of 100 μg/heart) | – | – | –
COc1ccc([C@@H]2Sc3ccc(Cl)cc3N(CCN(C)C)C(=O)[C@@H]2OC(C)=O)cc1 (relative stereo) [(+)-cis-2-(4-methoxyphenyl)-3-acetoxy-5-[2-(dimethylamino)ethyl]-7-chloro-2,3-dihydro-1,5-benzothiazepin-4(5H)--one hydrochloride, reference compound] | – | – | ++ (decrease is not less than 20 mm Hg but less than 40 mm Hg) | + (decrease is not less than 10 mm Hg but less than 20 mm Hg) | –
COc1ccc([C@@H]2Sc3c(Cl)cccc3N(CCN(C)C)C(=O)[C@@H]2O)cc1.Cl (racemic) [(±)-cis-2-(4-methoxyphenyl)-3-hydroxy-5-[2-(dimethylamino)ethyl]-9-chloro-2,3-dihydro-1,5-benzothiazepin-4(5H)-one hydrochloride] | – | +++ (increase is not less than 0.5 ml/minute at a dose of not more than 10 μg/heart) | – | – | Platelet aggregation-inhibiting activity (platelet aggregation): ++
COc1ccc([C@@H]2Sc3c(Cl)cccc3N(CCN(C)C)C(=O)[C@@H]2OC(C)=O)cc1.Cl (racemic) [(±)-cis-2-(4-methoxyphenyl)-3-acetoxy-5-[2-(dimethylamino)ethyl]-9-chloro-2,3-dihydro-1,5-benzothiazepin-4(5H)-one hydrochloride] | – | +++ (increase is not less than 0.5 ml/minute at a dose of not more than 10 μg/heart) | +++ (decrease is not less than 40 mm Hg but less than 60 mm Hg) | +++ (decrease is not less than 40 mm Hg but less than 60 mm Hg) | Platelet aggregation-inhibiting activity (platelet aggregation): ++
